Assay results reported in US9381142B2, “Olfactory adaptation and cross-adapting agents to reduce the perception of body odors” (Monell Chemical Senses Center, priority 2002, dated 2016).

Key:
[1] = tested on: male stress-derived axillary odor; assay: Cross-adaptation of male stress-derived axillary odor (odor panel, magnitude estimation of perceived intensity); format: in vivo, human; details: for Magnitude of Reduction of Intensity of Male Stress-Derived Odor (MSDO), Males: male stress-derived odor perceived by men; for Magnitude of Reduction of Intensity of Male Stress-Derived Odor (MSDO), Females: male stress-derived odor perceived by women
Source text: (§1) The procedure relies upon an individual constantly sniffing an adapting agent, such as a fragrance, and occasionally a test odorant. Perceived intensity of the test odorant is obtained by using psychophysical, magnitude-estimation procedures. These perceived intensities are obtained every 30 seconds over the test period, and are then compared with baseline perceived intensities obtained before the individual began sniffing the adapting agent. Throughout the testing we observe adaptation to the adapting agent. Results during trials with an inserted test odorant, such as the axillary odor used here, are believed to be reasonably predictive. If the perceived intensity of the test odorant decreases during the test, then the adapting agent cross-adapts the test odorant and becomes a cross-adapting agent. If the cross-adapting agent is itself not offensive, then the cross-adapting agent becomes a candidate for use in formulations in consumer products to ameliorate malodors, such as axillary odor or fecal/urine odors, and odors related to the female menstrual cycle.
(§2) Collection of secretions: Apocrine secretions obtained under stressed conditions provided the axillary odor that was used as the test odorant to evaluate the effectiveness of various adapting agents. Secretions were obtained from males (ages 20 to 60 years) and females (ages 20 to 40 years) in good health. […] Volunteers prepared their axillae for collection of apocrine secretions by refraining from deodorant use for 3 days and shaving their axillae the morning of the collection day.
(§3) Volunteers were rested in a supine position. The axillary regions were washed with isopropanol-soaked pads and injected intradermally with 1:10,000 adrenalin (in physiologic saline). This injection stimulated the secretion of apocrine gland secretions, which were collected in 10 μl pipettes, passed into 0.25 ml Eppendorf tubes, and stored on ice (or frozen for longer storage). The amount of secretion collected varied greatly with the individual subject (≦10 μl). The apocrine secretions from each volunteer were combined by consecutively washing each Eppendorf tube with 2×300 μl of doubly distilled water. This aqueous-apocrine fluid was transferred to a 5 ml round-bottomed flask for hydrolysis. X-N. Zeng, J. J. Leyden, J. G. Brand, A. I. Spielman, K. J. McGinley, G. Preti, An Investigation of Human Apocrine Gland Secretion for Axillary Odor Precursors, 18 J. Chem. Ecol. 1039-1055 (1992); X-N. Zeng, J. J. Leyden, A. I. Spielman and G. Preti Analysis of the characteristic human female axillary odors: Qualitative comparison to males. 22 J. Chem. Ecol. 237-257 (1996).
(§4) Production of odor: To produce quantities of stress-derived axillary odor for testing purposes, we hydrolyzed the apocrine secretion. The aqueous solution was refluxed for 20 min with 0.5 ml, 5% aqueous sodium hydroxide under a stream of nitrogen. The mixture was allowed to cool to room temperature, and then it was cooled in ice prior to being acidified with 6 N HCl to pH 2. The resulting axillary odor developed in the reaction mixture upon acidification was used as the test odorant. The axillary odors generated by this in vitro technique are analogous to the malodors produced by stressed individuals.
Sixteen (16) individuals (8 of each gender) served on an odor panel. Subjects ranged in age from 22 to 55 years (mean 32.7±10.6 s.d.), were not pregnant (by verbal report), and were all non-smokers. All panel members were screened for adequate use of magnitude estimation (some people have difficulties maintaining a ratio scale, i.e., when an odorant is half as strong as the previous, these people fail to provide a number that is half the previous estimate) and further trained in its use during 2-3 training sessions. All 16 subjects were tested with samples of male malodor compared to each of the potential cross-adapting agents. […]

[2] = tested on: female stress-derived axillary odor; assay: Cross-adaptation of female stress-derived axillary odor (odor panel, magnitude estimation of perceived intensity); format: in vivo, human; details: for Magnitude of Reduction of Intensity of Female Stress-Derived Odor (FSDO), Males: female stress-derived odor perceived by men; for Magnitude of Reduction of Intensity of Female Stress-Derived Odor (FSDO), Females: female stress-derived odor perceived by women
Source text: as §1, §2, §3, §4
A separate panel of 24 subjects (12 males and 12 females) tested samples of female stress-derived axillary odor with potential cross-adapting agents, some of which were not included in Example 1 above. Some of the subjects assessing the effectiveness of cross-adaptation of male stress-derived axillary odor were also used in the experiment with female secretions. However, these two experiments were treated as independent events. All panel members were screened for adequate use of magnitude estimation and further trained in its use during two to three training sessions. […]
Also: key: best: Best = Superior Cross-Adaptation; good: Good = Adequate Cross-Adaptation; poor: Poor = Ineffective Cross-Adaptation.

Compound	Magnitude of Reduction of Intensity of Male Stress-Derived Odor (MSDO), Males [1]	Magnitude of Reduction of Intensity of Male Stress-Derived Odor (MSDO), Females [1]	Magnitude of Reduction of Intensity of Female Stress-Derived Odor (FSDO), Males [2]	Magnitude of Reduction of Intensity of Female Stress-Derived Odor (FSDO), Females [2]
CC(C)=CCC(C)(C)C(=O)C(C)C [CLARITONE ®, 2,4,4,7-tetramethyl-oct-6-en-3-one]	best	best	best	good
CC/C=C\CCO [Cis-3-Hexenol, cis-3-hexenol-1-ol]	good	good	best	good
CC(C)=CCCC(C)CCO (stereo not drawn) [Citronellol 950, 3,7-dimethyl-6-octen-1-ol]	good	good	good	good
C=CC(C)CCCC(C)(C)O (stereo not drawn) [Dihydromyrcenol, 2,6-dimethyl-7-octen-2-ol]	best	good	best	good
C=CCCC(=O)C1=CCCC(C)(C)C1 [Dynascone 10, 1-(5,5-dimethyl-1-cyclohexen-1-yl)4-penten-1-one]	best	poor	good	good
C=CCc1ccc(O)c(OC)c1 [Eugenol, 2-methoxy-1-hydroxy-4-allylbenzene]	best	poor	good	good
CC(C)=CCCC(C)CCCC(C)C=O (stereo not drawn) [FARENAL ®, 2,6,10-trimethyl-9-undecenal]	poor	poor	good	poor
CC1CC(C)(c2ccccc2)OC(C)O1 (stereo not drawn) [Floropal, 2,4,6-trimethyl-4-phenyl-1,3-dioxane]	good	poor	best	best
CCCCCC1C(=O)CCC1CC(=O)OC (stereo not drawn) [HEDIONE ®, methyl dihydro jasmonate]	poor	poor	poor	poor
CCCCCCOC(=O)c1ccccc1O [Hexyl Salicylate, hexyl-2-hydroxybenzoate]	poor	poor	poor	good
CCCCCCC(C=O)=Cc1ccccc1 [Hexylcinnamic Aldehyde, alpha-hexylcinnamaldehyde]	good	good	good	poor
CC(=O)C1(C)CC2=C(CCCC2(C)C)CC1C (stereo not drawn) [ISO E SUPER ®, octahydro-2,3,8,8-tetramethyl-2-acetonaphthone]	poor	poor	poor	poor
